Experiments:
sugarbeets = assay: Pre-planting sugar application on sugarbeets, Hickson; type: in vivo, sugarbeet; settings: for Recoverable Sugar Yield / Recoverable Sugar Yield Increase Compared to Check Average / Sugarbeet Yield: ND
Method: (§1) The field trials were conducted simultaneously in two different planting locations for each of the crops. One location was near the community of Foxhome in Wilkin County, Minnesota (hereafter referred to as “Foxhome”) while the second location was near the community of Hickson in Cass County, North Dakota (hereafter referred to as “Hickson”). The Foxhome and Hickson locations are on opposite sides of the Red River along the border of Minnesota and North Dakota and separated by a distance exceeding 40 miles. Generally, the Foxhome location has heavier clay loam soil conditions while Hickson has sandy loam soil conditions.
(§2) At each of the Foxhome and Hickson locations, a total of thirty two (32) treatments were conducted for each crop (sugarbeets, soybeans, corn, wheat). Each treatment was replicated four times arranged in a Randomized Complete Block (RCB) Design in the same field. Each replication consisted of a plot measuring twenty five (25) feet in length and eleven (11) feet in width. In selecting the particular seed types for evaluation, popular commercial varieties to the region were utilized. For the row crops (sugarbeets, soybeans, corn) each replication included a width of six (6) rows with twenty two (22) inch row spacing and having a row length of twenty five (25) feet. The wheat was planted in accordance with standard commercial practices. To reduce/eliminate any treatment impacts between adjacent plots for the crops, only the four (4) interior rows of each plot were treated and evaluated for row crops, while for wheat, only the interior 7.33 feet of each plot were treated and evaluated. With the exception of the treatment program applied to the individual plots, which will be discussed below, conventional commercial growing practices for each planting location were otherwise followed during the field trials. While the individual plots at the same location, Hickson or Foxhome, experienced essentially the same growing conditions throughout the season, there were various differences associated with localized precipitation, general growing conditions, soil classification and the like, which contributed to performance differences between the Hickson and Foxhome locations.
(§3) The treatment regimen at each location for each of the tested crops included two (2) untreated treatments (Treatments 31 and 32) in which no sugar was applied and constitute the control elements. […] Six (6) treatments (Treatments 13-18) included the liquid application of high fructose corn syrup (hereafter “HFCS”) at varying rates. Six treatments (Treatments 19-24) included the liquid application of dextrose (hereafter “LIQDEX”) at varying rates. Six (6) treatments (Treatments 25-30) included the application of powdered cellulose (hereafter “POWCEL”) at varying rates. For the sugar applied in a solid form, granulated or powdered, field application was conducted via conventional broadcast spreading. For the sugar applied in a liquid form, a liquid concentrate was mixed and diluted with water in a tank and a conventional sprayer was configured such that the liquid was sprayed so as to have the same sugar equivalent (measured in pounds/per acre) as the sugar in solid form. Regardless of whether the sugar was applied as a solid or liquid, the sugar was applied directly onto the soil before spring tillage, lightly worked into the ground and followed by planting of the crop seed in the treated ground. A summary of application rates for each plot treatments are contained in Table 7 below and were used consistently with each of the crops (sugarbeets, soybeans, corn, wheat).
To test the impact of pre-planting application rates and sugar source on sugarbeets, identical field trials using Crystal® brand ACH 260 sugarbeet seed were conducted at the Foxhome and Hickson locations. Planting of the sugarbeet seed and harvest of the sugarbeets were conducted on as close to the same dates as practical so as to have essentially the same length growing season. […]

soybeans = assay: Pre-planting sugar application on soybeans, Hickson; type: in vivo, soybean; settings: for Yield / Yield Increase Compared to Check Average: ND
Method: as §1, §2, §3
To test the impact of pre-planting application rates and sugar source on soybeans, identical field trials using Syngenta brand soybean seed were conducted at the Foxhome and Hickson locations. Planting of the soybean seed and harvest of the soybeans were conducted on approximately the same dates so as to have essentially the same growing season. […]

corn [1] = assay: Pre-planting sugar application on corn, Foxhome; type: in vivo; settings: for Yield / Yield Increase Compared to Check Average: MN
Method: as §1, §2, §3
(§4) To test the impact of pre-planting application rates and sugar source on corn, identical field trials using Peterson Farms brand corn seed were conducted at the Foxhome and Hickson locations. Planting of the corn seed and harvest of the corn were conducted on the same dates so as to have essentially the same growing season. […]

corn [2] = assay: Pre-planting sugar application on corn, Hickson; type: in vivo; settings: for Yield / Yield Increase Compared to Check Average: ND
Method: as §1, §2, §3, §4

wheat = assay: Pre-planting sugar application on wheat, Hickson; type: in vivo; settings: ND
Method: as §1, §2, §3
To test the impact of pre-planting application rates and sugar source on wheat, identical field trials using Westbred Mayville wheat seed were conducted at the Foxhome and Hickson locations. Planting of the wheat seed and harvest of the wheat were conducted on the same dates so as to have essentially the same growing season. […]

[3] = six rates (25-250 pounds/Acre) per sugar, thirty in all

Compound: OC[C@H]1O[C@@](CO)(O[C@H]2O[C@H](CO)[C@@H](O)[C@H](O)[C@H]2O)[C@@H](O)[C@@H]1O [LIQSUC, sucrose]
- Recoverable Sugar Yield (sugarbeets; pre-planting 25 pounds/Acre): 9363 Pounds/Acre
- Recoverable Sugar Yield Increase Compared to Check Average (sugarbeets; pre-planting 25 pounds/Acre): −4.55%
- Sugarbeet Yield (sugarbeets; pre-planting 25 pounds/Acre): 28.83 Tons/Acre
- Recoverable Sugar Yield (sugarbeets; pre-planting 50 pounds/Acre): 10217 Pounds/Acre
- Recoverable Sugar Yield Increase Compared to Check Average (sugarbeets; pre-planting 50 pounds/Acre): 4.16%
- Sugarbeet Yield (sugarbeets; pre-planting 50 pounds/Acre): 32.05 Tons/Acre
- Recoverable Sugar Yield (sugarbeets; pre-planting 100 pounds/Acre): 9216 Pounds/Acre
- Recoverable Sugar Yield Increase Compared to Check Average (sugarbeets; pre-planting 100 pounds/Acre): −6.05%
- Sugarbeet Yield (sugarbeets; pre-planting 100 pounds/Acre): 28.83 Tons/Acre
- Recoverable Sugar Yield (sugarbeets; pre-planting 150 pounds/Acre): 9089 Pounds/Acre
- Recoverable Sugar Yield Increase Compared to Check Average (sugarbeets; pre-planting 150 pounds/Acre): −7.34%
- Sugarbeet Yield (sugarbeets; pre-planting 150 pounds/Acre): 31.95 Tons/Acre
- Recoverable Sugar Yield (sugarbeets; pre-planting 200 pounds/Acre): 9998 Pounds/Acre
- Recoverable Sugar Yield Increase Compared to Check Average (sugarbeets; pre-planting 200 pounds/Acre): 1.93%
- Sugarbeet Yield (sugarbeets; pre-planting 200 pounds/Acre): 32.35 Tons/Acre
- Recoverable Sugar Yield (sugarbeets; pre-planting 250 pounds/Acre): 9627 Pounds/Acre
- Recoverable Sugar Yield Increase Compared to Check Average (sugarbeets; pre-planting 250 pounds/Acre): −1.86%
- Sugarbeet Yield (sugarbeets; pre-planting 250 pounds/Acre): 32.29 Tons/Acre
- number of treatments showing negative yield benefits compared to check average (sugarbeets; six rates per sugar): four of the six
- Yield (soybeans; pre-planting 25 pounds/Acre): 61.90 Bushels/Acre
- Yield Increase Compared to Check Average (soybeans; pre-planting 25 pounds/Acre): 0.24%
- Yield (soybeans; pre-planting 50 pounds/Acre): 61.87 Bushels/Acre
- Yield Increase Compared to Check Average (soybeans; pre-planting 50 pounds/Acre): 0.19%
- Yield (soybeans; pre-planting 100 pounds/Acre): 59.52 Bushels/Acre
- Yield Increase Compared to Check Average (soybeans; pre-planting 100 pounds/Acre): −3.61%
- Yield (soybeans; pre-planting 150 pounds/Acre): 59.71 Bushels/Acre
- Yield Increase Compared to Check Average (soybeans; pre-planting 150 pounds/Acre): −3.30%
- Yield (soybeans; pre-planting 200 pounds/Acre): 61.36 Bushels/Acre
- Yield Increase Compared to Check Average (soybeans; pre-planting 200 pounds/Acre): −0.63%
- Yield (soybeans; pre-planting 250 pounds/Acre): 61.03 Bushels/Acre
- Yield Increase Compared to Check Average (soybeans; pre-planting 250 pounds/Acre): −1.17%
- number of treatments showing negative yield benefits compared to check average (soybeans; six rates per sugar): four of the six
- Yield (corn [1]; pre-planting 25 pounds/Acre): 264.82 Bushels/Acre
- Yield Increase Compared to Check Average (corn [1]; pre-planting 25 pounds/Acre): −0.35%
- Yield (corn [1]; pre-planting 50 pounds/Acre): 274.43 Bushels/Acre
- Yield Increase Compared to Check Average (corn [1]; pre-planting 50 pounds/Acre): 3.26%
- Yield (corn [1]; pre-planting 100 pounds/Acre): 264.79 Bushels/Acre
- Yield Increase Compared to Check Average (corn [1]; pre-planting 100 pounds/Acre): −0.36%
- Yield (corn [1]; pre-planting 150 pounds/Acre): 270.66 Bushels/Acre
- Yield Increase Compared to Check Average (corn [1]; pre-planting 150 pounds/Acre): 1.84%
- Yield (corn [1]; pre-planting 200 pounds/Acre): 271.85 Bushels/Acre
- Yield Increase Compared to Check Average (corn [1]; pre-planting 200 pounds/Acre): 2.29%
- Yield (corn [1]; pre-planting 250 pounds/Acre): 263.78 Bushels/Acre
- Yield Increase Compared to Check Average (corn [1]; pre-planting 250 pounds/Acre): −0.75%
- number of treatments showing yield improvement compared to check average (corn [1]; [3]): three of the six
- Yield (corn [2]; pre-planting 25 pounds/Acre): 163.69 Bushels/Acre
- Yield Increase Compared to Check Average (corn [2]; pre-planting 25 pounds/Acre): 5.93%
- Yield (corn [2]; pre-planting 50 pounds/Acre): 162.57 Bushels/Acre
- Yield Increase Compared to Check Average (corn [2]; pre-planting 50 pounds/Acre): 5.21%
- Yield (corn [2]; pre-planting 100 pounds/Acre): 160.94 Bushels/Acre
- Yield Increase Compared to Check Average (corn [2]; pre-planting 100 pounds/Acre): 4.15%
- Yield (corn [2]; pre-planting 150 pounds/Acre): 165.35 Bushels/Acre
- Yield Increase Compared to Check Average (corn [2]; pre-planting 150 pounds/Acre): 7.01%
- Yield (corn [2]; pre-planting 200 pounds/Acre): 164.24 Bushels/Acre
- Yield Increase Compared to Check Average (corn [2]; pre-planting 200 pounds/Acre): 6.29%
- Yield (corn [2]; pre-planting 250 pounds/Acre): 166.53 Bushels/Acre
- Yield Increase Compared to Check Average (corn [2]; pre-planting 250 pounds/Acre): 7.77%
- number of treatments showing yield improvement compared to check average (corn [2]; [3]): each of their six
- Yield (wheat; pre-planting 25 pounds/Acre): 47.09 Bushels/Acre
- Yield Increase Compared to Check (wheat; pre-planting 25 pounds/Acre): −4.17%
- Yield (wheat; pre-planting 50 pounds/Acre): 53.46 Bushels/Acre
- Yield Increase Compared to Check (wheat; pre-planting 50 pounds/Acre): 8.79%
- Yield (wheat; pre-planting 100 pounds/Acre): 50.09 Bushels/Acre
- Yield Increase Compared to Check (wheat; pre-planting 100 pounds/Acre): 1.93%
- Yield (wheat; pre-planting 150 pounds/Acre): 46.03 Bushels/Acre
- Yield Increase Compared to Check (wheat; pre-planting 150 pounds/Acre): −6.33%
- Yield (wheat; pre-planting 200 pounds/Acre): 48.31 Bushels/Acre
- Yield Increase Compared to Check (wheat; pre-planting 200 pounds/Acre): −1.69%
- Yield (wheat; pre-planting 250 pounds/Acre): 50.24 Bushels/Acre
- Yield Increase Compared to Check (wheat; pre-planting 250 pounds/Acre): 2.24%

Reference: patent US20160262390A1, “FIELD APPLICATION OF SUGARS TO INCREASE CROP YIELD” (Minn-Dak Farmers Cooperative, priority 2015, published 2016)
